Measured values as given in patent US9534035B2, “Cell lines expressing ENaC and methods using them” (priority 2008, dated 2017).
Entries after “also recorded” stand apart in the source; their conditions may differ. Like-named read-outs stand apart in the source and are kept apart here.

Tests used:
Assay type in all cases: cell-based
ENaC = target: T1, ENaC (Homo sapiens, UniProt P37088+P51168+P51170, A314G); assay: membrane potential assay with stable ENaC cell line (CHO)
T1 construct: expressed in transfected cells
T1 sequence (P37088 1-669): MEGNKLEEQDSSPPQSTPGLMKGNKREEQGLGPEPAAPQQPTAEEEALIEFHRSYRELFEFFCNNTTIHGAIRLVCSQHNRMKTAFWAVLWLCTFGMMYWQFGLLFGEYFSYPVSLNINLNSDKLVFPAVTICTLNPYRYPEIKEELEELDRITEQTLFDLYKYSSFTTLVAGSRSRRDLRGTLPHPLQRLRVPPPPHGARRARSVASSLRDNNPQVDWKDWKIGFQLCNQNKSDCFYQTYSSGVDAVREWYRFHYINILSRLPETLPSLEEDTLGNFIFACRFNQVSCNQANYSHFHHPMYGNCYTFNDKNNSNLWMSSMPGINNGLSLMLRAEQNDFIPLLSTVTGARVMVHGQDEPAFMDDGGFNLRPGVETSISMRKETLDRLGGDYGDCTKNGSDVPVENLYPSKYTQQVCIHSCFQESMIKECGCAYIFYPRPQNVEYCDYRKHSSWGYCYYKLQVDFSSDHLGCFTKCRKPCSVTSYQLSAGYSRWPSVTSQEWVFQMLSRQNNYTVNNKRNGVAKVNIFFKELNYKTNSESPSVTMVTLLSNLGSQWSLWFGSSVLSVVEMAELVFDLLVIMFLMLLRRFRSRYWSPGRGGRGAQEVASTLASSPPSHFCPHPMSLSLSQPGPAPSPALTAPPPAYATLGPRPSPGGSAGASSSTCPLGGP
T1 sequence (P51168 1-640 A314G): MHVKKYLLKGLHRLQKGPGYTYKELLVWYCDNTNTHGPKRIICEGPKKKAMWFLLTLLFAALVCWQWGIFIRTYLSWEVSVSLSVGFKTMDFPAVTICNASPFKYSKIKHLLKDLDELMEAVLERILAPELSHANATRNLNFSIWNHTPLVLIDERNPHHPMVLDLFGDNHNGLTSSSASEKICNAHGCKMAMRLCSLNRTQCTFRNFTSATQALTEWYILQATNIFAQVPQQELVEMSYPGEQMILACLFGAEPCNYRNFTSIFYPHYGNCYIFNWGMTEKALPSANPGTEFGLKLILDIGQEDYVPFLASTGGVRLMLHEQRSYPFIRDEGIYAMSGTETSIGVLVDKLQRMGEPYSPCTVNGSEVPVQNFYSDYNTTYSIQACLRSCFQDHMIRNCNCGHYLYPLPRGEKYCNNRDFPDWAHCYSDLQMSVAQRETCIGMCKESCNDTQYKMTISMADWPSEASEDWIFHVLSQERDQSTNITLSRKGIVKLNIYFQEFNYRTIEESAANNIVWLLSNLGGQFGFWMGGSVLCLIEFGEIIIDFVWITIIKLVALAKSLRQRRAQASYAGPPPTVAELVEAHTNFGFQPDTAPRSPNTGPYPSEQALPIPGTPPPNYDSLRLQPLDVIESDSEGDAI
T1 sequence (P51170 1-649): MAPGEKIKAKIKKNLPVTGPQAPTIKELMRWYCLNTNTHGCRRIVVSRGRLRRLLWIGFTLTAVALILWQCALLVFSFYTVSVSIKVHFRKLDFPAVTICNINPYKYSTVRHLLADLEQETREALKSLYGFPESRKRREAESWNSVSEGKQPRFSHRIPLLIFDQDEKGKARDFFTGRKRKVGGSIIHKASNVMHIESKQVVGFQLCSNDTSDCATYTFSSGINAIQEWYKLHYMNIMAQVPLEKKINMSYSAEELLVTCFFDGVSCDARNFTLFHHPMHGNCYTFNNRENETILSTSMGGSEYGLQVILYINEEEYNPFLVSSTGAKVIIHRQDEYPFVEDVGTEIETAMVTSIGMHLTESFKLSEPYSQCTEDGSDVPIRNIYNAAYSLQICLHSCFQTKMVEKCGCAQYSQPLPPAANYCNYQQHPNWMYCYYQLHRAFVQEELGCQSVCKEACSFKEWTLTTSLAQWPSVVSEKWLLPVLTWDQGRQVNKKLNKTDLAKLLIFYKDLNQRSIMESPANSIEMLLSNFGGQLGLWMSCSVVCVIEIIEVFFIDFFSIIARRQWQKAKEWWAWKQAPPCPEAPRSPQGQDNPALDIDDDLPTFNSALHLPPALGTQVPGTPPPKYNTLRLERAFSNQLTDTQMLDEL
Procedure: The influx of positively-charged sodium ions following the activation of ENaC results in a change in the membrane potential of the cell. To test the activity of ENaC cell lines, we used a membrane potential assay. Such assays are well known in the art. […] Rev. Biophys. […]
The assay plates were maintained in a 37° C. cell culture incubator under 5% CO2 for 19-21 hours. The media was then removed from the assay plates and 20 μl blue membrane potential dye (Molecular Devices Inc) was added and the cells were incubated for 1 hr at room temperature. Test compounds were solubilized in dimethylsulfoxide, diluted in a phosphate buffer and loaded into 384 well polypropylene micro-titer plates. The cell and compound plates were loaded into an FDSS instrument (Hamamatsu) which measures fluorescence (relative fluorescence units) from the plates over time. Fluorescence values were continuously collected from the beginning of the experiment and following addition of test compounds to report baseline values and any changes due to the addition of test compounds. Test compounds in assay buffer or assay buffer alone were then added to the cells and flluorescence values were collected for two minutes.

[1] = tested on: proteolytically cleaved ENaC isoforms; assay: dose response of inhibitors across trypsin concentrations, membrane potential FDSS protocol; conditions: FIG. 9, trypsin 0 to 2.25 mg/ml, IC50 plotted against protease concentration
Procedure: We also tested the ability of novel ENaC inhibitors (identified in Example 4) to inhibit proteolytically cleaved ENaC. […] The cells were loaded with membrane potential dye concurrently with the trypsin. […] values were calculated and plotted as a function of protease concentration. […] The different isoforms of ENaC can be pursed in drug discovery to more effectively address the role of the different isoforms of ENaC or the effect or role of proteolysis in disease.

proteolyzed ENaC Form 24 = assay: membrane potential assay, trypsin-treated ENaC cells; conditions: FIG. 8 dose response
Procedure: After a 1 hour incubation with a dye-protease solution at room temperature, the assay was run using the FDSS (Hamamatsu Corporation) as described above.
The experiment was performed using several treatment groups, each receiving a different concentration of trypsin (0 to 3 mg/ml). The cells were incubated with the trypsin for 1 hour at room temperature concurrently with membrane potential dye (standard protocol). […] We further characterized these proteolytically modified isoforms for their ability to conduct sodium.
The isoform specific assay described above was performed with MBP dye solution with trypsin concentrations as listed (Table 2).

[2] = ENaC cell line maintained in 90 mM sodium media, read-out: EC50 (approx)
[3] = ENaC cell line maintained in 150 mM sodium media, read-out: EC50 (approx)
[4] = a cell line of the invention, general statement, read-out: EC50

SMILES | EC50 (ENaC; [2]) | EC50 (ENaC; [3]) | EC50 (ENaC; [4]) | inhibition of proteolytically cleaved ENaC isoforms [1] | inhibition of cleaved ENaC form 24 (proteolyzed ENaC Form 24) | block of the sodium response (ENaC) | inhibition of uncleaved (non-proteolyzed) ENaC (ENaC) | EC50 (ENaC; FIG. 4, read-out: EC50)
[Cl-].[Li+] [LiCl, lithium chloride] | ~33 mM | ~82 mM | ~35 mM |  |  |  |  | 
N=C(N)NC(=O)c1nc(Cl)c(N)nc1N [Amiloride, amiloride] |  |  |  | inhibit a unique subset of ENaC isoforms | much less effective or not effective; also recorded: not effective to inhibit Form 24 | essentially all of the sodium response was blocked | effectively inhibits; also recorded: almost completely inhibit | 
[Cl-].[Na+] [NaCl, sodium chloride] | ~48 mM | ~80 mM | ~50 mM |  |  |  |  | 48 mM
